Test results as given in patent US20160039825A1 (BIOGEN MA INC., priority 2013, published 2016).

Each molecule was assayed against T1, Human ATX protein (Homo sapiens, UniProt Q13822) (assay: Autotaxin (ATX) assay, FRET with FS-3 substrate). Conditions: upper bound bins (no greater than 100, 250 or 500 nM); FS-3 2 μM, ATX 1.0 μg/mL.
T1 construct: made in house
Type: biochemical
Procedure, shortened: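 In-house human ATX (1.0 μg/mL final) was preincubated with compound for 30 min at room temperature in Tris buffer pH 7.4 with NaCl, KCl, CaCl2, MgCl2 and 1 mg/mL fatty acid-free BSA. FS-3 (2 μM final) was added and the plate shaken 2 h at room temperature in the dark. Fluorescence was read at ex 485/em 538 nm.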

SMILES	IC50
O=C(OCc1cc(Cl)cc(C(F)(F)F)c1)N1CCCn2nc(C(=O)N3CC4CCC(C3)N4)cc2C1 [Example 209]	≤ 100 nM
CCC1(CC)CNCCN1C(=O)c1cc2n(n1)CCCN(C(=O)OCc1cc(Cl)cc(C(F)(F)F)c1)C2 [Example 231]	≤ 100 nM
O=C(OCc1cc(C(F)(F)F)cc(C(F)(F)F)c1)N1CCCn2nc(S(=O)(=O)N3C4CCCC3CC4)cc2C1 [Example 305]	≤ 100 nM
CNC1CCN(C(=O)c2cc3n(n2)CCCN(C(=O)OCc2cc(C(F)(F)F)cc(C(F)(F)F)c2)C3)C1 (stereo not drawn) [Example 243]	≤ 100 nM
O=C(O)C1CC2CCCC(C1)N2C(=O)c1cc2n(c1)CCCN(C(=O)OCc1cc(Cl)cc(Cl)c1)C2 (stereo not drawn) [Example 103]	≤ 100 nM

Second part, the molecule after the results:

IC50	SMILES
≤ 100 nM	O=C(O)c1cc2n(n1)CCCN(C(=O)OCc1cc(C(F)(F)F)cc(C(F)(F)F)c1)C2 [Example 8, 5-(((3,5-Bis(trifluoromethyl)benzyl)oxy)carbonyl)-5,6,7,8-tetrahydro-4H-pyrazolo[1,5-a][1,4]diazepine-2-carboxylic acid]
≤ 100 nM	CCC1CN(C(=O)c2cc3n(n2)CCCN(C(=O)OCc2cc(Cl)cc(C(F)(F)F)c2)C3)CCN1 (stereo not drawn) [Example 206]
≤ 100 nM	CN1CCN(C(=O)c2cc3n(n2)CCCN(C(=O)OCc2cc(Cl)cc(C(F)(F)F)c2)C3)C2(CCC2)C1 [Example 174]
≤ 100 nM	CC1CNCC(C)N1C(=O)c1cc2n(n1)CCCN(C(=O)OCc1cc(C(F)(F)F)cc(C(F)(F)F)c1)C2 (stereo not drawn) [Example 249]
